Data from ChEMBL document CHEMBL5724709, “EUbOPEN Chemogenomics Library - IncuCyte” (2024).
Peptide text beside a SMILES is read from it. * marks the point of attachment. CH2Cl = ClC*

Key:
Assay type in all cases: toxicity, cell-based
Fibroblast = experiment: Incucyte cell viability with human fibroblast; conditions: 24 h, 10 µM, compound concentration 10 uM
U2OS = experiment: Incucyte cell viability with U2OS; conditions: human, 24 h, 10 µM, compound concentration 10 uM
HEK-293T = experiment: Incucyte cell viability with HEK293T; conditions: human, 24 h, 10 µM, compound concentration 10 uM
Further: unitless GR value; below 1 slowed growth and below 0 cell loss.

Structure (SMILES) | Growth Rate (Fibroblast; replicate number 1) | Growth Rate (Fibroblast; replicate number 2) | Growth Rate (U2OS; replicate number 1) | Growth Rate (U2OS; replicate number 2) | Growth Rate (HEK-293T; replicate number 1) | Growth Rate (HEK-293T; replicate number 2)
C[C@H](NC(=O)c1cn(C2(C#N)CC2)cn1)C(=O)Nc1nc(-c2cccc(-c3ccn(C)n3)c2)cs1 | 0.43 | 1 | 0.33 | 1 | 0.9 | 0.86
CC(=O)N1CCc2c(c(N3CCCc4cc(-c5cnn(C)c5)c(C(F)F)cc43)nn2C2CCOCC2)C1 | 0.79 | 1 | 1 | 0.89 | 0.61 | 0.51
O=C(NCC1CCOCC1)c1n[nH]cc1NC(=O)c1c(F)cccc1F | -0.35 | 0.3 | 0.03 | 0.42 | 0.35 | 0.49
COc1cccc(-c2nccc3c2CN(c2ccccc2)C3=O)c1 | 0.52 | 0.84 | 1 | 0.84 | 0.75 | 0.7
C/C=C1\NC(=O)[C@H]2CSSCC/C=C/[C@H](CC(=O)N[C@H](C(C)C)C(=O)N2)OC(=O)[C@H](C(C)C)NC1=O [ROMIDEPSIN] | 0.96 | -0.41 | 1 | 0.29 | 0.73 | 
CC(=O)N[C@@H](CC(C)C)C(=O)N[C@@H](CCC(=O)O)C(=O)N[C@@H](Cc1cnc[nH]1)C(=O)N[C@@H](CC(=O)O)C(=O)CCl.O=C(O)C(F)(F)F (Ac-LEHD-CH2Cl) | 0.44 | 1 | 0.62 | 1 | 0.35 | 0.95
Nc1ccccc1NC(=O)CCCCCC(=O)Nc1ccccc1 | 1 | -0.07 | 0.46 | 1 | 1 | 
Nc1ccccc1NC(=O)c1ccc(CNC(=O)OCc2cccnc2)cc1 [ENTINOSTAT] | -0.02 | 0.43 | -0.2 | 0.57 | 1 | 
Cc1ncsc1-c1ccc(CNC(=O)[C@@H]2C[C@@H](O)CN2C(=O)[C@@H](NC(=O)COCCOCCOCCNC(=O)C[C@@H]2N=C(c3ccc(Cl)cc3)c3c(sc(C)c3C)-n3c(C)nnc32)C(C)(C)C)cc1 | 0.23 | -0.26 | -0.19 | 0.31 | 0.01 | 0.16
CC(=O)N[C@H](C(=O)N[C@@H](CC(=O)O)C(=O)N[C@H](C(=O)N[C@@H](C)C(=O)N[C@H](C=O)CC(=O)O)C(C)C)C(C)C (Ac-VDVAD-aldehyde) | 0.52 | 1 | 0.65 | 0.76 | 0.65 | 1
Cc1cc(C)c(CNC(=O)c2cc(Cl)c3c(c2C)O[C@@](C)([C@H]2CC[C@H](N(C)C)CC2)O3)c(=O)[nH]1 [VALEMETOSTAT] | 1 | 0.46 | 0.4 | 0.98 | 0.77 | 0.96
COc1cc(Nc2ncc(F)c(Nc3ccc4c(n3)N(COP(=O)([O-])[O-])C(=O)C(C)(C)O4)n2)cc(OC)c1OC.O.O.O.O.O.O.[Na+].[Na+] [FOSTAMATINIB DISODIUM] | 0.41 | -0.16 | -0.2 | -0.05 | 0.05 | 0.51
CCCCN(Cc1ccc(C(=O)NO)cc1)C(=O)Nc1ccccc1 [NEXTURASTAT A] | 1 | -0.22 | -0.18 | 0.6 | 1 | 
C=CC(=O)Nc1cccc(-c2c[nH]cc2CN(C)CCN)c1 | 0.37 | 1 | 0.21 | 1 | 0.75 | 0.9
Cc1nc(F)ccc1-c1cc(Cn2ccn(C)c2=N)cc(C(=O)NCc2ccc(Cl)c(Cl)c2)c1.O=C(O)C(F)(F)F | 0.97 | 0.38 | 1 |  | 0.97 | 0.95
COc1nc(Nc2cc(S(C)(=O)=O)ccc2N[C@@H](c2cccc3c2OC(F)(F)O3)c2ncccc2Cl)nc(N2CCNCC2)n1 | -0.22 | -0.7 | -0.91 | -0.02 | -0.57 | -0.39
COc1cc(Nc2ncc(F)c(Nc3ccc4c(n3)NC(=O)C(C)(C)O4)n2)cc(OC)c1OC [R-406] | -0.02 | -0.68 | -0.31 | -0.21 | 0.1 | 0.27
Cc1ncc(Cl)cc1NCc1ccc(C(=O)N[C@@H](CC2CCCC2)C(=O)NC2CC2)s1 | 0.64 | 0.26 | 0.37 | 0.86 | 0.59 | 0.85
